Test results as given in ChEMBL document CHEMBL4732198, “HDAC7 Inhibition by Phenacetyl and Phenylbenzoyl Hydroxamates” (J Med Chem, 2021).
One block for each compound: values may come before it. Calls of active or inactive are those of the source. No cut-off for these calls is given here.

Experiments:
[1] = Solubility of compound in PEG400 in PBS at 10 mg/ml; type: physicochemical
[2] = target: T1, Protein deacetylase HDAC6 (Homo sapiens, UniProt Q9UBN7); assay: Inhibition of recombinant human HDAC6 using Boc-Lys(Ac)-AMC as substrate pre-incubated for 15 mins followed by substrate addition and measured after 60 mins by fluorescence based assay
T1 sequence (Q9UBN7 whole entry): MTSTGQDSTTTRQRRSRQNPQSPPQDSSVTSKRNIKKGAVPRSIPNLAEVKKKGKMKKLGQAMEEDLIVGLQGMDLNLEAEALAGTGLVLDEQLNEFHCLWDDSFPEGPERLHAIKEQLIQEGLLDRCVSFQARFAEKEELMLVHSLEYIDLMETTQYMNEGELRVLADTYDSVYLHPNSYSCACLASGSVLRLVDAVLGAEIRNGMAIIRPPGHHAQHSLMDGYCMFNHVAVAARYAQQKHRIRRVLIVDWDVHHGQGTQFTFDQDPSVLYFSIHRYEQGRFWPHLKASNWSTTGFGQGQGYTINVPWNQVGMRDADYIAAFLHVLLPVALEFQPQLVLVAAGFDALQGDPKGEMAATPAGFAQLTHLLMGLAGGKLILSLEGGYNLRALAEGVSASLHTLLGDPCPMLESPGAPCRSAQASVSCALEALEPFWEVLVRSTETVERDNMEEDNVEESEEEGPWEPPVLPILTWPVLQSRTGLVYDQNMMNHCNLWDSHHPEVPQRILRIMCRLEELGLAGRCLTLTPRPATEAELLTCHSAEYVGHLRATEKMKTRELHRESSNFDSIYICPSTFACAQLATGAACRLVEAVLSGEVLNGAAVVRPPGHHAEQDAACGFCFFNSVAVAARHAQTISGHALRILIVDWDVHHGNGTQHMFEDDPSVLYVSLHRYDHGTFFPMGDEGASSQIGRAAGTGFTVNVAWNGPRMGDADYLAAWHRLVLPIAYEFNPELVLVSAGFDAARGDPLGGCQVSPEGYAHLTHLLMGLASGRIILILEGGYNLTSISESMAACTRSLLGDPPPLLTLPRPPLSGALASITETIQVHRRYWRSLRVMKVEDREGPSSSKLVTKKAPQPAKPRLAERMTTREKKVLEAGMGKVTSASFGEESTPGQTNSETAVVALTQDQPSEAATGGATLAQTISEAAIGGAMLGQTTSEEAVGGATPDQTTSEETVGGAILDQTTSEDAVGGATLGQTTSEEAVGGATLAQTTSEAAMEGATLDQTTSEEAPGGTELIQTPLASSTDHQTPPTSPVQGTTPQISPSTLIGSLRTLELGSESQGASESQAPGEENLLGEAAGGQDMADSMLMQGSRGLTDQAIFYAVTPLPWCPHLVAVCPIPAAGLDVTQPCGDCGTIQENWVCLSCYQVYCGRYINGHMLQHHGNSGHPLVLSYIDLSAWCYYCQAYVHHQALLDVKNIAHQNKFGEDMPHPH

[3] = target: T2, Class 1 histone deacetylase (Homo sapiens, UniProt Q13547+O15379+Q92769+Q9BY41); assay: Inhibition of Class 1 histone deacetylase in human THP-1 cells using Ac-LGK(Ac)-AMC as substrate incubated for 3 hrs followed by 50 uM SAHA addition and measured after 1 hr by fluorescence based assay; type: cell-based
Histone deacetylase 8 = target: T3, Histone deacetylase 8 (Homo sapiens, UniProt Q9BY41); assay: Inhibition of recombinant human HDAC8 using Ac-LGK(TFA)-AMC as substrate preincubated for 30 mins followed by substrate addition and measured after 90 mins by fluorescence based assay
T3 sequence (Q9BY41 whole entry): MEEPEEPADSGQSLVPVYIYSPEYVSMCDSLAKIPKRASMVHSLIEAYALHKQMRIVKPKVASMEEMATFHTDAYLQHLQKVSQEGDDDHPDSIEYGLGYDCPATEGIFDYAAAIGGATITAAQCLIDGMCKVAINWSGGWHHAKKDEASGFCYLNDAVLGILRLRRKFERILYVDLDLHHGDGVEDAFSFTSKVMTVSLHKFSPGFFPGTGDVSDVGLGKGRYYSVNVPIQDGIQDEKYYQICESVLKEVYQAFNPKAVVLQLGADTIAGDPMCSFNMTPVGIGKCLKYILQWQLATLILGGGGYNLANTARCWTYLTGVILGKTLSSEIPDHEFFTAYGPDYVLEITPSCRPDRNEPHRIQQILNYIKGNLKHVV

Histone deacetylase 9 = Histone deacetylase 9 (Homo sapiens, UniProt Q9UKV0); assay: Inhibition of recombinant human HDAC9 using Ac-LGK(TFA)-AMC as substrate preincubated for 15 mins followed by substrate addition and measured after 60 mins by fluorescence based assay
Histone deacetylase 9, sequence (Q9UKV0 whole entry): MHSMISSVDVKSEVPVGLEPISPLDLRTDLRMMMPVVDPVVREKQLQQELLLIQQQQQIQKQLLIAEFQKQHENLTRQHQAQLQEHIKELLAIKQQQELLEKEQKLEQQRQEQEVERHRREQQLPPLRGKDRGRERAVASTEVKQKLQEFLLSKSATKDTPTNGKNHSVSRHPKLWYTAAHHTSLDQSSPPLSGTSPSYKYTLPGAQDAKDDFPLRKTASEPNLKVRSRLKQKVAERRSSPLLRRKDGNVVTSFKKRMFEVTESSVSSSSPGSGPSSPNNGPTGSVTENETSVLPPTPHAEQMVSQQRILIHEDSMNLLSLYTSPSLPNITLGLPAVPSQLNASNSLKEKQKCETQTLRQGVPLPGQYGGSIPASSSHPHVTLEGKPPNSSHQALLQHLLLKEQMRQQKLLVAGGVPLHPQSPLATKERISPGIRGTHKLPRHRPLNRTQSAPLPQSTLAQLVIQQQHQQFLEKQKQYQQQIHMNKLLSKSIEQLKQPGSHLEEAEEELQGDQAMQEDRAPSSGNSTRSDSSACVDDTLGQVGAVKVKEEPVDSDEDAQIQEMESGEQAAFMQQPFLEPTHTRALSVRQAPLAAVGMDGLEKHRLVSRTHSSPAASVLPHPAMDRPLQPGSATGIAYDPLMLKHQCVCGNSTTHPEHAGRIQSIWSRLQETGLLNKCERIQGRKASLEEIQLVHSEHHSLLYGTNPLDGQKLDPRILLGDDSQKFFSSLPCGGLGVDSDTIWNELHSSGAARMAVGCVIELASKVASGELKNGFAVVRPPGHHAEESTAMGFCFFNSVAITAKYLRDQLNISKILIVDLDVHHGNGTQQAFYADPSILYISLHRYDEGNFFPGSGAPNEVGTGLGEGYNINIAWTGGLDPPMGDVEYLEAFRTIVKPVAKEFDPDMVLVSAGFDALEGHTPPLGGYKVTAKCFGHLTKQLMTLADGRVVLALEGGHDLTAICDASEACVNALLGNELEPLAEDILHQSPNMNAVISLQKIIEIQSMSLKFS

[4] = Inhibition of Class 2a histone deacetylase in human THP-1 cells using Ac-LGK(TFA)-AMC as substrate incubated for 3 hrs followed by 50 uM SAHA addition and measured after 1 hr by fluorescence based assay; type: cell-based
[5] = Metabolic stability in Sprague-Dawley rat liver microsomes assessed as half life at 5 uM preincubated for 5 mins followed by NADPH addition and measured after 60 mins by LCMS analysis; type: ADME, Microsome; settings: time 65 min
Histone deacetylase 1 = Histone deacetylase 1 (Homo sapiens, UniProt Q13547); assay: Inhibition of recombinant human HDAC1 using Ac-LGK(Ac)-AMC as substrate preincubated for 30 mins followed by substrate addition and measured after 90 mins by fluorescence based assay
Histone deacetylase 1, sequence (Q13547 whole entry): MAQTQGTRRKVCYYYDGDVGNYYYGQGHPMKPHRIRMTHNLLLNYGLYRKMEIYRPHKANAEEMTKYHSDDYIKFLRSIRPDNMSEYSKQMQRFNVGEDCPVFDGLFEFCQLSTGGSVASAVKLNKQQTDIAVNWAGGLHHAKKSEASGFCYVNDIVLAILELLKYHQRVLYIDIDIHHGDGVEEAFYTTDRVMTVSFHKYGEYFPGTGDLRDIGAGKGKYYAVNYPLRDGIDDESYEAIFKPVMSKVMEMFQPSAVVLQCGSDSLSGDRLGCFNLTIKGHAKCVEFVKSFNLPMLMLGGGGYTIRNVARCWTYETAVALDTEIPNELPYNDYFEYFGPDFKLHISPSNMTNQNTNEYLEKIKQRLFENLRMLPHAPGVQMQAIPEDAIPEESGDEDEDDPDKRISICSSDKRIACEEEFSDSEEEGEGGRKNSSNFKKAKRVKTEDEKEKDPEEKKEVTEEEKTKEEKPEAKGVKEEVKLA

Histone deacetylase 7 = target: T4, Histone deacetylase 7 (Homo sapiens, UniProt Q8WUI4)
T4 sequence (Q8WUI4 whole entry): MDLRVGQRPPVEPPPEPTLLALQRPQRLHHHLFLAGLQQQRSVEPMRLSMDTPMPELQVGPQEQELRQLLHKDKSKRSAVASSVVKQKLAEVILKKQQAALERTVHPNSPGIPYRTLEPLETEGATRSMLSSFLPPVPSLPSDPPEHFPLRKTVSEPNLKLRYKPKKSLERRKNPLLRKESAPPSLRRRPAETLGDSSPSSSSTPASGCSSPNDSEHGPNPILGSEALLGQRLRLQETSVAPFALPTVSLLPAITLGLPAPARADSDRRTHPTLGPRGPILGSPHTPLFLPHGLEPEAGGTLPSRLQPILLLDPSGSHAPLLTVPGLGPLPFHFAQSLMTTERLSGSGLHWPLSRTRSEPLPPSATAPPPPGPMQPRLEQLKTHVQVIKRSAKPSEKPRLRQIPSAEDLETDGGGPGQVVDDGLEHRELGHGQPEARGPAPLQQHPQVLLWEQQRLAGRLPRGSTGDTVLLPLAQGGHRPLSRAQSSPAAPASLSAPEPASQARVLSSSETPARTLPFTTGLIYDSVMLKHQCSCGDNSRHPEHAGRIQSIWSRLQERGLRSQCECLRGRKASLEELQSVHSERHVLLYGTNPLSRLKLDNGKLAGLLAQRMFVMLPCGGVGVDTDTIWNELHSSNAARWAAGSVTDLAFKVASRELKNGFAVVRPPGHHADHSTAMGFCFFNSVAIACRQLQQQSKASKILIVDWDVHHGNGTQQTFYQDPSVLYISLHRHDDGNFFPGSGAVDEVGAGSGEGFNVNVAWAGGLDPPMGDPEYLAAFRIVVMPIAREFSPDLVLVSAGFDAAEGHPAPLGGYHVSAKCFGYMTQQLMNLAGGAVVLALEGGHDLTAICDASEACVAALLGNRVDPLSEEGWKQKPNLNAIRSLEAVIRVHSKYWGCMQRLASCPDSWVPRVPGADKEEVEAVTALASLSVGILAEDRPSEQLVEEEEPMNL
Description: Inhibition of recombinant human HDAC7 using Ac-LGK(TFA)-AMC as substrate pre-incubated for 15 mins followed by substrate addition and measured after 60 mins by fluorescence based assay

Macrophage [6] = assay: Antiinflammatory activity in human monocytes-derived macrophages assessed as inhibition of LPS-induced IL-23 secretion at 30 uM pretreated for 1 hr followed by LPS stimulation and measured after 24 hrs by homogenous time-resolved fluorescence assay; type: functional, cell-based; settings: time 25.0 hrs
[7] = target: T2, Class 1 histone deacetylase; assay: Inhibition of Class 1 histone deacetylase in human THP-1 cells assessed as accumulation of Histone H4 acetylation levels at 1 to 10 uM incubated for 3 hrs by western blot analysis; type: cell-based; settings: dose 1-10 µM
Macrophage [8] = assay: Antiinflammatory activity in human monocytes-derived macrophages assessed as inhibition of LPS-induced IL-6 secretion at 30 uM pretreated for 1 hr followed by LPS stimulation and measured after 24 hrs by homogenous time-resolved fluorescence assay; type: functional, cell-based; settings: time 25.0 hrs
Macrophage [9] = assay: Antiinflammatory activity in human monocytes-derived macrophages assessed as inhibition of LPS-induced IL-12p40 secretion at 30 uM pretreated for 1 hr followed by LPS stimulation and measured after 24 hrs by homogenous time-resolved fluorescence assay; type: functional, cell-based; settings: time 25.0 hrs
Macrophage [10] = assay: Antiinflammatory activity in human monocytes-derived macrophages assessed as inhibition of LPS-induced IL-1alpha secretion at 30 uM pretreated for 1 hr followed by LPS stimulation and measured after 24 hrs by homogenous time-resolved fluorescence assay; type: functional, cell-based; settings: time 25.0 hrs
Histone deacetylase 4 = Histone deacetylase 4 (Homo sapiens, UniProt P56524); assay: Inhibition of recombinant human HDAC4 using Ac-LGK(TFA)-AMC as substrate pre-incubated for 15 mins followed by substrate addition and measured after 60 mins by fluorescence based assay
Histone deacetylase 4, sequence (P56524 whole entry): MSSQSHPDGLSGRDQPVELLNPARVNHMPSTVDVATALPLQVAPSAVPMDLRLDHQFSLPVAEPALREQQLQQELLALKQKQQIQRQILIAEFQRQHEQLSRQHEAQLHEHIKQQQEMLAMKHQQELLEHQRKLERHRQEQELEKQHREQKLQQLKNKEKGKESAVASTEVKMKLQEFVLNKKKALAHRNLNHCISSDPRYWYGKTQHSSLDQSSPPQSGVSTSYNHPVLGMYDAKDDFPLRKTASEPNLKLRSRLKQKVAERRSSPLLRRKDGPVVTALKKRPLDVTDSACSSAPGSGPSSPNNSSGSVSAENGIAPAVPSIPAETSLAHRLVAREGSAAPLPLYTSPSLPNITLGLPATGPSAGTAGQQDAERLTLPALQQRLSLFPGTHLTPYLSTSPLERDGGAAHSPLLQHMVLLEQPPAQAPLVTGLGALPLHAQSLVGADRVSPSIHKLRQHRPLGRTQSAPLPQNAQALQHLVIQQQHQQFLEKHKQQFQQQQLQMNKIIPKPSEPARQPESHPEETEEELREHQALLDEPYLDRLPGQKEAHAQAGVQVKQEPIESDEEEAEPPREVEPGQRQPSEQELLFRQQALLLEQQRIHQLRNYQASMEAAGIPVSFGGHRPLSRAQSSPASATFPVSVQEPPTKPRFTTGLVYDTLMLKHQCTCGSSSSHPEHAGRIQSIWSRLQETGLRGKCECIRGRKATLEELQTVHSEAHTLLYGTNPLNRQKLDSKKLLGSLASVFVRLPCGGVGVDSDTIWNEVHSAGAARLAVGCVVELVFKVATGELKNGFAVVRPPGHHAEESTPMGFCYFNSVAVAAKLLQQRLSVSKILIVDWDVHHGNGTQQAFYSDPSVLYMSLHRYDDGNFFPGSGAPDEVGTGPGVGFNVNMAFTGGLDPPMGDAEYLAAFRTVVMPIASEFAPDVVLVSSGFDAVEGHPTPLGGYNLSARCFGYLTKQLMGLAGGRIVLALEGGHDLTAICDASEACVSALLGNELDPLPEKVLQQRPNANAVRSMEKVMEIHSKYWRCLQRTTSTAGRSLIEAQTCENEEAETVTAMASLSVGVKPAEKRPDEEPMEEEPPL

Macrophage [11] = assay: Antiinflammatory activity in human monocytes-derived macrophages assessed as inhibition of LPS-induced GM-CSF secretion at 30 uM pretreated for 1 hr followed by LPS stimulation and measured after 24 hrs by homogenous time-resolved fluorescence assay; type: functional, cell-based; settings: time 25.0 hrs
Macrophage [12] = assay: Antiinflammatory activity in human monocytes-derived macrophages assessed as inhibition of LPS-induced CCL2 secretion at 30 uM pretreated for 1 hr followed by LPS stimulation and measured after 24 hrs by homogenous time-resolved fluorescence assay; type: functional, cell-based; settings: time 25.0 hrs

SMILES: O=C(NO)c1ccc(CN2C(=O)c3ccccc3C2=O)cc1-c1ccccc1
solubility [1]: Insoluble | IC50 [2]: 6400 nM | IC50 [3]: > 30000 nM | IC50 (Histone deacetylase 8): 72 nM | IC50 (Histone deacetylase 9): 20 nM | IC50 [4]: 300 nM | half-life at 5 µM [5]: 0.917 h

SMILES: O=C(NO)c1ccc(CN2C(=O)c3cccnc3C2=O)cc1-c1ccccc1
IC50 (Histone deacetylase 1): > 100000 nM

SMILES: O=C(NCCCCC(C(=O)NO)c1ccccc1)c1ccccc1O (stereo not given)
IC50 (Histone deacetylase 1): > 10000 nM | IC50 (Histone deacetylase 7): 1900 nM

SMILES: O=C(NO)c1ccc(CN2C(=O)c3ccccc3S2(=O)=O)cc1-c1ccccc1
Activity (Macrophage [6]): Active | solubility [1]: Soluble | IC50 [2]: 5300 nM | IC50 [3]: > 30000 nM | IC50 (Histone deacetylase 8): 71 nM | inhibition [7]: inactive | Activity (Macrophage [8]): Active | Activity (Macrophage [9]): inactive | Activity (Macrophage [10]): Active | IC50 (Histone deacetylase 9): 38 nM | IC50 (Histone deacetylase 4): 49 nM | IC50 [4]: 300 nM | Activity (Macrophage [11]): Active | half-life at 5 µM [5]: 3.83 h | Activity (Macrophage [12]): Active

SMILES: CC(C)[C@H](C(=O)Nc1ccc(C(=O)NO)cc1)c1ccccc1
inhibition [7]: Active

SMILES: O=C(NO)c1ccc(CN2C(=O)c3cccc(F)c3C2=O)cc1-c1ccccc1
solubility [1]: Insoluble | IC50 [2]: 4200 nM | IC50 [3]: > 30000 nM | IC50 (Histone deacetylase 8): 88 nM | IC50 (Histone deacetylase 9): 46 nM | IC50 [4]: 300 nM | half-life at 5 µM [5]: 8.08 h

SMILES: O=C(O)c1ccccc1C(=O)NCc1ccc(C(=O)NO)c(-c2ccccc2)c1
IC50 (Histone deacetylase 1): > 100000 nM

Now from value to compound:

IC50 (Histone deacetylase 1): 1400 nM | IC50 (Histone deacetylase 7): 1400 nM
SMILES: O=C(O)c1cccc(C(CCCCN2C(=O)c3ccccc3C2=O)C(=O)NO)c1 (stereo not given)

IC50 (Histone deacetylase 7): 1100 nM
SMILES: O=C(NO)C(OCCCN1C(=O)c2ccccc2C1=O)c1ccccc1 (stereo not given)

IC50 (Histone deacetylase 1): 19000 nM
SMILES: O=C(NO)[C@@H](CCCCN1C(=O)c2ccccc2C1=O)c1ccccc1

IC50 (Histone deacetylase 1): 26000 nM | half-life at 5 µM [5]: 0.533 h
SMILES: O=C(NO)C(CCCCN1C(=O)c2ccccc2C1=O)c1ccccc1 (stereo not given)
